Experimental data: PubChem BioAssay AID330 (DTP/NCI, 2004)
Values joined by “and” are separate entries in the source; they are usually repeats but may differ in a detail not shown here. Equal entries are not always repeated. Inconclusive results and toxic doses are left out.

Tested on: P388 leukemia ip, CD2F1 mice, survival T/C
Experiment: NCI In Vivo Anticancer Drug Screen. Data for tumor model P388 Leukemia (intraperitoneal) in CD2F1 (CDF1) mice
Details: endpoint: median survival time, higher = longer survival
Outline: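 Mice carrying the transplanted tumor received test compound or vehicle. Survival was recorded in each group, and the value is the treated-group measurement divided by that of the vehicle-treated control group.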

[1] = dose: 50.0 mg/kg/injection, schedule: Q01DX005 (ip), vehicle: Klucel (hydroxypropylcellulose) (HPC)
[2] = dose: 100.0 mg/kg/injection, schedule: Q01DX005 (ip), vehicle: Klucel (hydroxypropylcellulose) (HPC)
[3] = dose: 200.0 mg/kg/injection, schedule: Q01DX005 (ip), vehicle: Klucel (hydroxypropylcellulose) (HPC)
[4] = dose: 50.0 mg/kg/injection, schedule: Q01DX009 (ip), vehicle: saline
[5] = dose: 100.0 mg/kg/injection, schedule: Q01DX009 (ip), vehicle: saline
[6] = dose: 200.0 mg/kg/injection, schedule: Q01DX009 (ip), vehicle: saline
[7] = dose: 60.0 mg/kg/injection, schedule: Q01DX005 (ip), vehicle: Klucel (hydroxypropylcellulose) (HPC)
[8] = dose: 120.0 mg/kg/injection, schedule: Q01DX005 (ip), vehicle: Klucel (hydroxypropylcellulose) (HPC)
[9] = dose: 240.0 mg/kg/injection, schedule: Q01DX005 (ip), vehicle: Klucel (hydroxypropylcellulose) (HPC)
[10] = dose: 50.0 mg/kg/injection, schedule: Q01DX009 (ip), vehicle: Klucel (hydroxypropylcellulose) (HPC)
[11] = dose: 100.0 mg/kg/injection, schedule: Q01DX009 (ip), vehicle: Klucel (hydroxypropylcellulose) (HPC)
[12] = dose: 200.0 mg/kg/injection, schedule: Q01DX009 (ip), vehicle: Klucel (hydroxypropylcellulose) (HPC)
[13] = dose: 50.0 mg/kg/injection, schedule: Q01DX009 (ip), vehicle: saline with Tween-80
[14] = dose: 200.0 mg/kg/injection, schedule: Q01DX009 (ip), vehicle: saline with Tween-80
[15] = dose: 60.0 mg/kg/injection, schedule: Q01DX005 (ip), vehicle: saline with Tween-80

Structure (SMILES): Cc1ccc(S(=O)(=O)c2cnc(N3CCN(C)CC3)nc2N)cc1
- T/C (dose: 100.0 mg/kg/injection, schedule: Q04DX002 (ip), vehicle: saline): 100 % of control
- T/C (dose: 200.0 mg/kg/injection, schedule: Q04DX002 (ip), vehicle: saline): 100 % of control
- T/C (dose: 400.0 mg/kg/injection, schedule: Q04DX002 (ip), vehicle: saline): 93 % of control

Structure (SMILES): O=C(Nc1cc(Cl)cc(Cl)c1)OC1CC2CC1C1CC3OC3C21 (stereo unspecified)
- T/C [1]: 94 % of control
- T/C [2]: 99 % of control
- T/C [3]: 92 % of control

Structure (SMILES): Cc1nc(C(=O)OCc2ccccc2)cc(OCc2ccccc2)c1C
- T/C (dose: 12.5 mg/kg/injection, schedule: Q01DX009 (ip), vehicle: distilled water + Tween-80): 101 % of control
- T/C (dose: 25.0 mg/kg/injection, schedule: Q01DX009 (ip), vehicle: distilled water + Tween-80): 90 % of control
- T/C (dose: 50.0 mg/kg/injection, schedule: Q01DX009 (ip), vehicle: distilled water + Tween-80): 95 % of control
- T/C (dose: 100.0 mg/kg/injection, schedule: Q01DX009 (ip), vehicle: distilled water + Tween-80): 90 % of control
- T/C (dose: 200.0 mg/kg/injection, schedule: Q01DX009 (ip), vehicle: distilled water + Tween-80): 93 % of control

Structure (SMILES): O=S(=O)(O)OCNc1cc(F)cc(F)c1
- T/C [4]: 96 % of control
- T/C [5]: 99 % of control
- T/C [6]: 101 % of control

Structure (SMILES): O=c1[nH]c2ccccc2c2nc(-c3ccccc3)c3ccccc3c12
- T/C [7]: 96 % of control
- T/C [8]: 86 % of control
- T/C [9]: 91 % of control

Structure (SMILES): CC(=O)NC(=O)CCCCCCC(=O)NC(C)=O
- T/C [1]: 88 % of control

Structure (SMILES): FC(F)(F)c1cc(Cl)nc(Cl)n1
- T/C (dose: 6.0 mg/kg/injection, schedule: Q01DX005 (ip), vehicle: saline with Tween-80): 106 % of control
- T/C (dose: 12.0 mg/kg/injection, schedule: Q01DX005 (ip), vehicle: saline with Tween-80): 97 % of control
- T/C (dose: 25.0 mg/kg/injection, schedule: Q01DX005 (ip), vehicle: saline with Tween-80): 92 % of control

Structure (SMILES): Cc1nn(C(=O)c2ccncc2)c(C)c1N=Nc1cccc(Cl)c1
- T/C [10]: 99 % of control
- T/C [11]: 100 % of control
- T/C [12]: 98 % of control

Structure (SMILES): Nc1ccc(-c2nc3ccccc3c(=O)[nH]2)cc1
- T/C (dose: 12.5 mg/kg/injection, schedule: Q01DX009 (ip), vehicle: Klucel (hydroxypropylcellulose) (HPC)): 86 % of control
- T/C (dose: 25.0 mg/kg/injection, schedule: Q01DX009 (ip), vehicle: Klucel (hydroxypropylcellulose) (HPC)): 100 % of control and 108 % of control and 92 % of control
- T/C [11]: 122 % of control and 90 % of control and 94 % of control
- T/C [12]: 111 % of control

Structure (SMILES): CCC12NC(=O)NC1(C)NC(=O)N2 (stereo unspecified)
- T/C (dose: 6.25 mg/kg/injection, schedule: Q01DX009 (ip), vehicle: saline with Tween-80): 91 % of control
- T/C (dose: 12.5 mg/kg/injection, schedule: Q01DX009 (ip), vehicle: saline with Tween-80): 91 % of control
- T/C (dose: 16.5 mg/kg/injection, schedule: Q01DX009 (ip), vehicle: saline with Tween-80): 100 % of control

Structure (SMILES): COc1nc(C(O)C2OC(C)(C)OCC2O)[nH]c1C#N (stereo unspecified)
- T/C [10]: 106 % of control
- T/C [11]: 102 % of control and 91 % of control
- T/C [12]: 103 % of control and 110 % of control

Structure (SMILES): C/C=C/C(C#N)O[Si](C)(C)C (stereo unspecified)
- T/C (dose: 3.75 mg/kg/injection, schedule: Q01DX005 (ip), vehicle: saline): 97 % of control
- T/C (dose: 7.5 mg/kg/injection, schedule: Q01DX005 (ip), vehicle: saline): 113 % of control
- T/C (dose: 15.0 mg/kg/injection, schedule: Q01DX005 (ip), vehicle: saline): 99 % of control

Structure (SMILES): N#CCCN(CCC#N)c1ccc(/C=C2/C=C(c3ccccc3)OC2=O)cc1
- T/C (dose: 100.0 mg/kg/injection, schedule: Q01DX001 (ip), vehicle: saline with Tween-80): 97 % of control
- T/C (dose: 200.0 mg/kg/injection, schedule: Q01DX001 (ip), vehicle: saline with Tween-80): 94 % of control
- T/C (dose: 400.0 mg/kg/injection, schedule: Q01DX001 (ip), vehicle: saline with Tween-80): 90 % of control

Structure (SMILES): COC(=O)[C@H]1O[C@H]1c1cccc[n+]1[O-]
- T/C (dose: 25.0 mg/kg/injection, schedule: Q01DX005 (ip), vehicle: water): 100 % of control
- T/C (dose: 50.0 mg/kg/injection, schedule: Q01DX005 (ip), vehicle: water): 97 % of control
- T/C (dose: 100.0 mg/kg/injection, schedule: Q01DX005 (ip), vehicle: water): 100 % of control
- T/C (dose: 200.0 mg/kg/injection, schedule: Q01DX005 (ip), vehicle: water): 102 % of control

Structure (SMILES): O=C(c1cccnc1)c1cc(-c2ccccn2)c(=O)n2ccccc12
- T/C (dose: 25.0 mg/kg/injection, schedule: Q01DX009 (ip), vehicle: saline with Tween-80): 99 % of control and 104 % of control
- T/C [13]: 107 % of control and 109 % of control and 88 % of control
- T/C (dose: 100.0 mg/kg/injection, schedule: Q01DX009 (ip), vehicle: saline with Tween-80): 104 % of control and 107 % of control and 89 % of control
- T/C [14]: 90 % of control

Structure (SMILES): CCOc1c(N=Nc2ccc(Br)cc2)c(C)nn1C(=S)SC
- T/C [7]: 93 % of control
- T/C [8]: 92 % of control
- T/C [9]: 98 % of control

Structure (SMILES): CNC(=S)NNC1=NC(=S)NC1(C)C
- T/C [4]: 98 % of control
- T/C [5]: 103 % of control
- T/C [6]: 101 % of control

Structure (SMILES): COc1cc(C(c2cc3c(cc2O)OCO3)N2CCN(C(c3cc(OC)c(OC)c(OC)c3)c3cc4c(cc3O)OCO4)CC2)cc(OC)c1OC (stereo unspecified)
- T/C [15]: 87 % of control
- T/C (dose: 120.0 mg/kg/injection, schedule: Q01DX005 (ip), vehicle: saline with Tween-80): 90 % of control
- T/C (dose: 240.0 mg/kg/injection, schedule: Q01DX005 (ip), vehicle: saline with Tween-80): 87 % of control

Structure (SMILES): CN(C)/C=N/c1c(C#N)c(-c2ccccc2)c(-c2ccccc2)n1-c1ccccc1
- T/C [13]: 97 % of control
- T/C [4]: 98 % of control
- T/C [5]: 93 % of control
- T/C [14]: 96 % of control
- T/C [6]: 87 % of control

Structure (SMILES): CCCCCCCCCCCCCCCCOc1cccc(/C(=N/NS(C)(=O)=O)N2CCCCC2)c1
- T/C [10]: 89 % of control
- T/C [11]: 92 % of control
- T/C [12]: 91 % of control

Structure (SMILES): CC(=O)NC1C(=O)CC(c2ccccc2)N(C)C1c1ccccc1 (stereo unspecified)
- T/C [1]: 101 % of control
- T/C [2]: 97 % of control
- T/C [3]: 90 % of control

Structure (SMILES): O=C1CSC(c2cccs2)N1c1nncs1 (stereo unspecified)
- T/C [7]: 100 % of control
- T/C [8]: 100 % of control
- T/C [9]: 172 % of control

Structure (SMILES): O=C1/C(=C/c2cccnc2)Cc2ccccc21
- T/C (dose: 12.5 mg/kg/injection, schedule: Q01DX009 (ip), vehicle: other): 103 % of control
- T/C (dose: 25.0 mg/kg/injection, schedule: Q01DX009 (ip), vehicle: other): 103 % of control
- T/C (dose: 50.0 mg/kg/injection, schedule: Q01DX009 (ip), vehicle: other): 99 % of control
- T/C (dose: 100.0 mg/kg/injection, schedule: Q01DX009 (ip), vehicle: other): 99 % of control
- T/C (dose: 200.0 mg/kg/injection, schedule: Q01DX009 (ip), vehicle: other): 94 % of control

Structure (SMILES): O=C(c1ccc(Cl)cc1)n1c(Cl)c(/C=N\Nc2ccc([N+](=O)[O-])cc2[N+](=O)[O-])c2ccccc21
- T/C (dose: 12.5 mg/kg/injection, schedule: Q01DX001 (ip), vehicle: Klucel (hydroxypropylcellulose) (HPC)): 92 % of control
- T/C (dose: 25.0 mg/kg/injection, schedule: Q01DX001 (ip), vehicle: Klucel (hydroxypropylcellulose) (HPC)): 96 % of control
- T/C (dose: 50.0 mg/kg/injection, schedule: Q01DX001 (ip), vehicle: Klucel (hydroxypropylcellulose) (HPC)): 88 % of control

Structure (SMILES): COc1ccc2c(c1)N=C(NNC1=Nc3cc(OC)ccc3SC1)CS2
- T/C (dose: 15.0 mg/kg/injection, schedule: Q01DX005 (ip), vehicle: saline with Tween-80): 113 % of control and 97 % of control
- T/C (dose: 30.0 mg/kg/injection, schedule: Q01DX005 (ip), vehicle: saline with Tween-80): 101 % of control and 102 % of control
- T/C [15]: 100 % of control and 91 % of control

Structure (SMILES): CN=C(c1ccc(NC(=O)c2cccc(C(=O)Nc3ccc(C(=NC)N(C)C)cc3)c2)cc1)N(C)C
- T/C (dose: 1.56 mg/kg/injection, schedule: Q01DX005 (ip), vehicle: saline): 102 % of control
- T/C (dose: 3.12 mg/kg/injection, schedule: Q01DX005 (ip), vehicle: saline): 102 % of control
- T/C (dose: 6.25 mg/kg/injection, schedule: Q01DX005 (ip), vehicle: saline): 106 % of control and 96 % of control

Structure (SMILES): CCCCCCCN(CCCCCCC)CC(O)c1c(OC)c2cc(Br)ccc2c2ccc(Br)cc12 (stereo unspecified)
- T/C (dose: 7.5 mg/kg/injection, schedule: Q01DX009 (ip), vehicle: saline with Tween-80): 93 % of control
- T/C (dose: 15.0 mg/kg/injection, schedule: Q01DX009 (ip), vehicle: saline with Tween-80): 100 % of control
- T/C (dose: 30.0 mg/kg/injection, schedule: Q01DX009 (ip), vehicle: saline with Tween-80): 93 % of control

Structure (SMILES): Oc1nc2nc[nH]n2c1N=Nc1ccccc1
- T/C [7]: 115 % of control
- T/C [8]: 98 % of control
- T/C [9]: 92 % of control
